Test results taken from the NIST ThermoML archive (doi:10.1021/je2008704).

Conditions: Liquid, Ebulliometric method (Recirculating still)

OCCO [1,2-ethanediol]
Conditions	vapor or sublimation pressure [kPa]
412.81 K	13.33
422.78 K	20
430.26 K	26.66
436.37 K	33.33
441.5 K	40
445.96 K	46.66
449.93 K	53.33
453.52 K	60
456.78 K	66.66
459.79 K	73.33
462.58 K	79.99
465.18 K	86.66
467.62 K	93.32
469.48 K	98.66
470.02 K	100.4

CCO [ethanol]
Conditions	vapor or sublimation pressure [kPa]
329.67 K	40
336.06 K	53.33
341.23 K	66.66
345.59 K	79.99
349.38 K	93.32
351.03 K	99.74

O [water]
Conditions	vapor or sublimation pressure [kPa]
349.09 K	40
356.17 K	53.33
361.87 K	66.66
366.69 K	79.99
370.88 K	93.32
372.76 K	100
